How the values were obtained:
[1] = system: A549 (human lung carcinoma) cells; experiment: Cell Viability Assay (CellTiter-Glo), A549; format: cell-based; settings: Homo sapiens, A549, 72 h
Summary of the method: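 Cells grown in RPMI 1640 with 10% FBS were seeded at 1.67E+04 cells/mL and left overnight at 37° C., 5% CO2. They were then exposed to serially diluted compound for 72 h, after which CellTiter-Glo luminescence was read, normalized to DMSO, and fitted to a 4-parameter logistic model for IC50.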

[2] = system: MIA PaCa-2 (human pancreatic carcinoma) cells; experiment: Cell Viability Assay (CellTiter-Glo), MIA PaCa-2; format: cell-based; settings: Homo sapiens, MIA PaCa-2, 72 h
Experimental: Serially-diluted compound or DMSO was added to the cells, and plates were incubated at 37° C., 5% CO2 for 72 h. Cell viability was measured using a CellTiter-Glo® Luminescent Cell Viability Assay kit (Promega) according to the manufacturer's protocol. The luminescence signal of treated samples was normalized to DMSO control, and data were analyzed using a 4-parameter logistic model to calculate IC50 values.

KRAS G12C = KRAS G12C (Homo sapiens (Human), UniProt P01116, C118A/G12C); experiment: 2 h coupled exchange assay; format: biochemical; settings: Avg 2 h Coupled exchange IC50, 2 h compound pre-incubation
Experimental: The term “2 h coupled exchange assay” or “20 h coupled exchange assay” as used herein refers to the assay described in the Section entitled “BIOLOGICAL EVALUATION.”

KRAS G12C, sequence (P01116 other isoform, or with tags, fused parts or gaps G12C/C118A): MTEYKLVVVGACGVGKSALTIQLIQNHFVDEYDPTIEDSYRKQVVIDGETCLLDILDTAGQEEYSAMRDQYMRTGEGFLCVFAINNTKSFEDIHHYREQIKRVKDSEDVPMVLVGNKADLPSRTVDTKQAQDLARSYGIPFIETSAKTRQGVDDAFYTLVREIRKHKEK

Structure (SMILES) | IC50 [1] [µM] | IC50 [2] [µM] | IC50 (KRAS G12C) [µM]
C=CC(=O)N1CC2(CCN(c3nc4c(c(-c5cc(OC)ccc5F)c3C#N)CCC(c3scnc3C)=C4)C2)C1 [Example 23-38, 4-(2-fluoro-5-methoxyphenyl)-7-(4-methyl-1,3-thiazol-5-yl)-2-(2-(2-propenoyl)-2,6-diazaspiro[3.4]octan-6-yl)-5,6-dihydro-3-quinolinecarbonitrile] | 8.01 | 1.54 | 0.135
C=CC(=O)N1CC2(CCN(c3nc4c(c(-c5ccccc5OC)c3C#N)CCC(c3scnc3C)=C4)C2)C1 [Example 23-39, 4-(2-methoxyphenyl)-7-(4-methyl-1,3-thiazol-5-yl)-2-(2-(2-propenoyl)-2,6-diazaspiro[3.4]octan-6-yl)-5,6-dihydro-3-quinolinecarbonitrile] | 7.69 | 2.37 | 0.394
C=CC(=O)N1CC2(CCN(c3nc4c(c(-c5ccccc5O)c3C#N)CCC(c3scnc3C)=C4)C2)C1 [Example 23-40, 4-(2-hydroxyphenyl)-7-(4-methyl-1,3-thiazol-5-yl)-2-(2-(2-propenoyl)-2,6-diazaspiro[3.4]octan-6-yl)-5,6-dihydro-3-quinolinecarbonitrile] | 7.26 | 2.28 | 0.136
C=CC(=O)N1CC2(CCN(c3nc4c(c(-c5cccc(O)c5F)c3C#N)CCC(c3scnc3C)=C4)C2)C1 [Example 23-43, 4-(2-fluoro-3-hydroxyphenyl)-7-(4-methyl-1,3-thiazol-5-yl)-2-(2-(2-propenoyl)-2,6-diazaspiro[3.4]octan-6-yl)-5,6-dihydro-3-quinolinecarbonitrile] | 8.38 | 4.56 | 0.299
C=CC(=O)N1CC2(CCN(c3nc4c(c(-c5cccc(OC)c5F)c3C#N)CCC(c3scnc3C)=C4)C2)C1 [Example 23-44, 4-(2-fluoro-3-methoxyphenyl)-7-(4-methyl-1,3-thiazol-5-yl)-2-(2-(2-propenoyl)-2,6-diazaspiro[3.4]octan-6-yl)-5,6-dihydro-3-quinolinecarbonitrile] | 5.86 | 3.1 | 0.687
C=CC(=O)N1CC2(CCN(c3nc4c(c(-c5cc(O)ccc5Cl)c3C#N)CCC(c3scnc3C)=C4)C2)C1 [Example 23-45, 4-(2-chloro-5-hydroxyphenyl)-7-(4-methyl-1,3-thiazol-5-yl)-2-(2-(2-propenoyl)-2,6-diazaspiro[3.4]octan-6-yl)-5,6-dihydro-3-quinolinecarbonitrile] | > 5 | 1.07 | 0.033
C=CC(=O)N1CC2(CCN(c3nc4c(c(-c5cccc(F)c5F)c3C#N)CCC(c3scnc3C)=C4)C2)C1 [Example 23-46, 4-(2,3-difluorophenyl)-7-(4-methyl-1,3-thiazol-5-yl)-2-(2-(2-propenoyl)-2,6-diazaspiro[3.4]octan-6-yl)-5,6-dihydro-3-quinolinecarbonitrile] | 5.37 | 1.5 | 0.114

Continued, values first:

IC50 [1] [µM] | IC50 [2] [µM] | IC50 (KRAS G12C) [µM] | Structure (SMILES)
> 5 | > 5 | 0.044 | C=CC(=O)N1CC2(CCN(c3nc4c(c(-c5cc(O)ccc5F)c3C#N)CCC(c3scnc3C)=C4)C2)C1 [Example 23-47, 4-(2-fluoro-5-hydroxyphenyl)-7-(4-methyl-1,3-thiazol-5-yl)-2-(2-(2-propenoyl)-2,6-diazaspiro[3.4]octan-6-yl)-5,6-dihydro-3-quinolinecarbonitrile]
3.43 | 0.761 | 0.112 | C=CC(=O)N1CC2(CCN(c3nc4c(c(-c5c(C)cccc5F)c3C#N)CCC(c3scnc3C)=C4)C2)C1 [Example 23-48, 4-(2-fluoro-6-methylphenyl)-7-(4-methyl-1,3-thiazol-5-yl)-2-(2-(2-propenoyl)-2,6-diazaspiro[3.4]octan-6-yl)-5,6-dihydro-3-quinolinecarbonitrile]
> 5 | 0.67 | 0.197 | C=CC(=O)N1CC2(CCN(c3nc4c(c(-c5ncccc5F)c3C#N)CCC(c3scnc3C)=C4)C2)C1 [Example 23-49, 4-(3-fluoro-2-pyridinyl)-7-(4-methyl-1,3-thiazol-5-yl)-2-(2-(2-propenoyl)-2,6-diazaspiro[3.4]octan-6-yl)-5,6-dihydro-3-quinolinecarbonitrile]
3.41 | 0.779 | 0.109 | C=CC(=O)N1CC2(CCN(c3nc4c(c(-c5ccccc5F)c3C#N)CCC(c3scnc3COC)=C4)C2)C1 [Example 23-52, 4-(2-fluorophenyl)-7-(4-(methoxymethyl)-1,3-thiazol-5-yl)-2-(2-(2-propenoyl)-2,6-diazaspiro[3.4]octan-6-yl)-5,6-dihydro-3-quinolinecarbonitrile]
8.87 | 1.23 | 0.391 | C=CC(=O)N1CC2(CCN(c3nc4c(c(-c5cccc(F)c5OC)c3C#N)CCC(c3scnc3C)=C4)C2)C1 [Example 23-53, 4-(3-fluoro-2-methoxyphenyl)-7-(4-methyl-1,3-thiazol-5-yl)-2-(2-(2-propenoyl)-2,6-diazaspiro[3.4]octan-6-yl)-5,6-dihydro-3-quinolinecarbonitrile]
> 5 | 2.11 | 0.112 | C=CC(=O)N1CC2(CCN(c3nc4c(c(-c5cccc(F)c5O)c3C#N)CCC(c3scnc3C)=C4)C2)C1 [Example 23-54, 4-(3-fluoro-2-hydroxyphenyl)-7-(4-methyl-1,3-thiazol-5-yl)-2-(2-(2-propenoyl)-2,6-diazaspiro[3.4]octan-6-yl)-5,6-dihydro-3-quinolinecarbonitrile]
> 5 | 2.12 | 0.12 | C=CC(=O)N1CC2(CCN(c3nc4c(c(-c5cccc(O)c5)c3C#N)CCC(c3scnc3C)=C4)C2)C1 [Example 23-55, 4-(3-hydroxyphenyl)-7-(4-methyl-1,3-thiazol-5-yl)-2-(2-(2-propenoyl)-2,6-diazaspiro[3.4]octan-6-yl)-5,6-dihydro-3-quinolinecarbonitrile]
> 5 | 0.487 | 0.128 | C=CC(=O)N1CC2(CCN(c3nc4c(c(-c5ccccc5F)c3C#N)CCC(c3scnc3CO)=C4)C2)C1 [Example 23-56, 4-(2-fluorophenyl)-7-(4-(hydroxymethyl)-1,3-thiazol-5-yl)-2-(2-(2-propenoyl)-2,6-diazaspiro[3.4]octan-6-yl)-5,6-dihydro-3-quinolinecarbonitrile]
10.7 | 2.06 | 0.841 | C=CC(=O)N1CC2(CCN(c3nc4c(c(-c5ncccc5F)c3C#N)CCC(c3c(C)cnn3C)=C4)C2)C1 [Example 23-58, 7-(1,4-dimethyl-1H-pyrazol-5-yl)-4-(3-fluoro-2-pyridinyl)-2-(2-(2-propenoyl)-2,6-diazaspiro[3.4]octan-6-yl)-5,6-dihydro-3-quinolinecarbonitrile]
14 | 0.047 | 0.024 | C=CC(=O)N1CC2(CCN(c3nc4c(c(-c5ncccc5F)c3C#N)CC[C@H](c3scnc3C)C4)C2)C1 [Example 23-60, (7S)-4-(3-fluoro-2-pyridinyl)-7-(4-methyl-1,3-thiazol-5-yl)-2-(2-(2-propenoyl)-2,6-diazaspiro[3.4]octan-6-yl)-5,6,7,8-tetrahydro-3-quinolinecarbonitrile]

— patent publication US20240059703A1 (AMGEN INC., priority 2021, published 2024)
